Values after ≈ are worked out from the molar mass of the structure shown. Active and inactive are the calls of the source. No cut-off for these calls is given here.
Experiments:
Candida albicans [1] = test: Synergistic antifungal activity against Candida albicans SC5314 assessed as inhibition of fungal growth incubated for 24 hrs in presence of (Z)-4-(4-(4-bromophenyl)-2-(phenylimino)thiazol-3(2H)-yl)-1,5-dimethyl-2-phenyl-1,2-dihydro-3H-pyrazol-3-one by broth microdilution checkerboard assay; type: functional
Candida albicans [2] = test: Antifungal activity against Candida albicans erg6delta/delta assessed as inhibition of fungal growth incubated for 24 hrs by CLSI protocol based broth microdilution method; type: functional
Candida albicans [3] = test: Synergistic antifungal activity against Candida albicans SC5314 assessed as inhibition of fungal growth incubated for 24 hrs in presence of (Z)-1,5-dimethyl-4-(4-(naphthalen-2-yl)-2-(phenylimino)thiazol-3(2H)-yl)-2-phenyl-1,2-dihydro-3H-pyrazol-3-one by broth microdilution checkerboard assay; type: functional
Candida albicans [4] = test: Antifungal activity against Candida albicans SC5314 assessed as inhibition of fungal growth incubated for 24 hrs by CLSI protocol based broth microdilution method; type: functional
Candida albicans [5] = test: Antifungal activity against Candida albicans SN152 assessed as inhibition of fungal growth incubated for 24 hrs by CLSI protocol based broth microdilution method; type: functional
Candida albicans [6] = test: Synergistic antifungal activity against Candida albicans SC5314 assessed as fractional inhibitory concentration index incubated for 24 hrs in presence of tridemorph by broth microdilution checkerboard assay; type: functional
[7] = Cytotoxicity against human HUVEC cells incubated for 48 hrs by CCK-8 method; type: toxicity, cell-based
[8] = Hemolytic activity in mouse RBC assessed as hemolysis at 2 to 32 ug/ml incubated for 60 mins by absorbance based analysis relative to control; type: toxicity, cell-based, Erythrocyte; details: mouse red blood cells, at 2 to 32 µg/mL, dose 2-32 µg/ml, read-out: Activity
Candida albicans [9] = test: Antifungal activity against Candida albicans SC5314 assessed as inhibition of hyphae growth measured after 30 passages; type: functional, organism-based
Candida albicans [10] = test: Synergistic antifungal activity against Candida albicans SC5314 assessed as fractional inhibitory concentration index incubated for 24 hrs in presence of terbinafine by broth microdilution checkerboard assay; type: functional
Candida albicans [11] = test: Synergistic antifungal activity against Candida albicans SC5314 assessed as inhibition of fungal growth incubated for 24 hrs in presence of terbinafine by broth microdilution checkerboard assay; type: functional
Candida albicans [12] = test: Antifungal activity against Candida albicans SC5314 assessed as inhibition of hyphae growth incubated for 24 hrs by CLSI protocol based broth microdilution method; type: functional
[13] = target: T1, Sterol 24-C-methyltransferase (Candida albicans (strain SC5314 / ATCC MYA-2876) (Yeast), UniProt O74198); test: Inhibition of recombinant Candida albicans SC5314 Erg6 methyltransferase activity using zymosterol as substrate incubated for 15 mins followed by substrate addition by liquid scintillation counter analysis
T1 sequence (O74198 whole entry): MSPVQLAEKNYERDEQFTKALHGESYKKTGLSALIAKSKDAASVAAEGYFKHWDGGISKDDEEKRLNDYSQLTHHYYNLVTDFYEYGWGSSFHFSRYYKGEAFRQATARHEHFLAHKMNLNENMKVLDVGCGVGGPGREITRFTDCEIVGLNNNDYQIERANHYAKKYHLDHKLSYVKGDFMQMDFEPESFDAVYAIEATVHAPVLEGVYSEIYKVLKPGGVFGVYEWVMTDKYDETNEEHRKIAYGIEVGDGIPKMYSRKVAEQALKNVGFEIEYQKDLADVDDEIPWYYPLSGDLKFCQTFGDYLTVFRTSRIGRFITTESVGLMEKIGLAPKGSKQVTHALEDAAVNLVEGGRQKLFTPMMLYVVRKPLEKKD

Candida albicans [14] = test: Synergistic antifungal activity against Candida albicans SC5314 assessed as inhibition of fungal growth incubated for 24 hrs in presence of tridemorph by broth microdilution checkerboard assay; type: functional
[15] = Cytotoxicity against human BEAS-2B cells incubated for 48 hrs by CCK-8 method; type: toxicity, cell-based

Structure (SMILES) | MIC80 (Candida albicans [1]) [µg/mL] | MIC80 (Candida albicans [2]) [µg/mL] | MIC80 (Candida albicans [3]) [µg/mL] | MIC80 (Candida albicans [4]) [µg/mL] | MIC80 (Candida albicans [5]) [µg/mL] | fractional inhibitory concentration index (FICI) (Candida albicans [6]) | EC50 at 48 h [7] [µg/mL] | hemolysis at 1 h [8] [%] | Activity (Candida albicans [9]) | fractional inhibitory concentration index (FICI) (Candida albicans [10]) | MIC80 (Candida albicans [11]) [µg/mL] | MIC50 (Candida albicans [12]) [µg/mL] | IC50 [13] [nM] | MIC80 (Candida albicans [14]) [µg/mL] | EC50 at 48 h [15] [µg/mL]
CCCCCCCCCCCCCN1CC(C)OC(C)C1 (stereo unspecified) [TRIDEMORPH] | 0.5 | 0.008 (≈ 0.0269 µM) | 0.008 | > 128 | > 128 |  |  |  |  |  |  |  |  |  | 
CN(C/C=C/C#CC(C)(C)C)Cc1cccc2ccccc12 [TERBINAFINE] | 0.5 | 0.5 (≈ 1.72 µM) | 0.008 | 32 (≈ 110 µM) | 32 (≈ 110 µM) |  |  |  |  |  |  |  |  |  | 
Cc1c(-n2c(-c3ccc(Br)cc3)cs/c2=N\c2ccccc2)c(=O)n(-c2ccccc2)n1C |  |  |  | > 128 |  | <0.1 | > 50 | < 1 | Active | <0.1 | 8 | 2 (≈ 3.87 µM) | 1010 | 8 | > 50
